Each structure is given as a SMILES string. The source made the active and inactive calls.

Experiment [1] in a line: anti-trypanosomal activity in BESM host cells – imaging, CA-I/72 strain, bovine embryo skeletal muscle, dry powder, dose response (AID 651885). It counts as functional, cell-based.
The target of experiment [2] is Histone-lysine N-methyltransferase NSD2 (Homo sapiens, UniProt O96028). It counts as biochemical.
Experiment [3] addresses T1, Beta Lactamase (Pseudomonas aeruginosa, UniProt Q932Y6). Description: VIM-2 CCF2 hydrolysis inhibition, assay artifact filter – biochemical, FRET readout, CCF2 substrate, artefact control for selective VIM-2 inhibitor project, dose response (AID 1926).
Experiment [4] addresses T1, Beta Lactamase. Kind of experiment: concentration-dependent VIM-2 enzyme inhibition – biochemical, epi-absorbance readout, selective inhibitors, dose response (AID 1919).
In experiment [5] the target is T2, Beta-lactamase (Pseudomonas aeruginosa, UniProt Q79MP6). Description: […] counterscreen for selective VIM-2 inhibitors: dose response biochemical high throughput screening assay to identify inhibitors of IMP-1 metallo-beta-lactamase. On the technique in general: The purpose of a counterscreen is to sort out artefacts and off-target activity.
T2 sequence (Q79MP6 whole entry): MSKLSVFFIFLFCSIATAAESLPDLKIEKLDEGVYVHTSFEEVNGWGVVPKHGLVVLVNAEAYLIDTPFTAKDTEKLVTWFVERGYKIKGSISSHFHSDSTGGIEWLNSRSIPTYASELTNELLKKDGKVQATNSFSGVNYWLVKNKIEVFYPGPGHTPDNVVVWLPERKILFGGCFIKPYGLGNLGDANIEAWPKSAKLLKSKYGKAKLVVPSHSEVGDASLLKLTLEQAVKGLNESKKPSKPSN
Experiment [6] concerns the target T2, Beta-lactamase. Kind of experiment: inhibition of IMP-1 beta-lactamase activity – biochemical, epi-absorbance, selectivity assay for VIM-2 inhibitor project, dose response (AID 1920).
In experiment [7] the target is Beta-lactamase (Salmonella choleraesuis (strain SC-B67), UniProt Q5J463). Description: Epi-absorbance-based counterscreen for selective VIM-2 inhibitors: dose response biochemical high throughput screening assay to identify inhibitors of TEM-1 serine-beta-lactamase.
Chain of Beta-lactamase (Salmonella choleraesuis (strain SC-B67), UniProt Q5J463) (Q5J463 whole entry): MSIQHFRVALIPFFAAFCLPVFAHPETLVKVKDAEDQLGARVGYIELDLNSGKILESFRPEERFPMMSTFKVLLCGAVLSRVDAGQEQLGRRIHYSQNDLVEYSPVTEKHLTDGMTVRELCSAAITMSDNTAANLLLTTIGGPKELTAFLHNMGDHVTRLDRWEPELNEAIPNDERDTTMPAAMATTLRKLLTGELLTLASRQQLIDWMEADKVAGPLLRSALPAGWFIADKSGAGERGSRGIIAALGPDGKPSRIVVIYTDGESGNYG
The nature of experiment [8]: cells. It counts as functional, cell-based.
In experiment [9] the target is Fructose-bisphosphate aldolase (Mycobacterium tuberculosis, UniProt P9WQA3). Description: Fluorescence-based biochemical high throughput dose response assay for inhibitors of the fructose-bisphosphate aldolase (FBA) of M. tuberculosis. It counts as functional.
Chain of Fructose-bisphosphate aldolase (P9WQA3 whole entry): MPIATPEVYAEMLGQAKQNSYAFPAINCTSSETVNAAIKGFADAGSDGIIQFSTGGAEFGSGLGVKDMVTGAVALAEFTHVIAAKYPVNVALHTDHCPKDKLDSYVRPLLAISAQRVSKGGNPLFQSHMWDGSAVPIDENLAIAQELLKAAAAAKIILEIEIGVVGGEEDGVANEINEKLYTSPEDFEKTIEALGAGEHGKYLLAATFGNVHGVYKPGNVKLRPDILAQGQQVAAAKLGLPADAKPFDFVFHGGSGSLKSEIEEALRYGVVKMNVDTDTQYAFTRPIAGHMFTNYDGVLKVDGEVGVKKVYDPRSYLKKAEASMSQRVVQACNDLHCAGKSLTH
Experiment [10] concerns A-375. Kind of experiment: proliferation inhibition in MITF-low A375 cells – cell-based, cherry-pick samples, set 2, counter-screen for MITF modulator project, dose response (AID 540335). The format is functional. The following applies: Homo sapiens.
For experiment [11], the system named is A-375. Kind of experiment: MITF: Counter assay: A375 proliferation Measured in Cell-Based System Using Plate Reader - 2084-03_Inhibitor_Dose_DryPowder_Activity. [Related pubchem assays (depositor defined):AID488944]. The format is functional. As to conditions: Homo sapiens.
Experiment [12] can be described thus: cells. The format is functional, cell-based. This is another data set of the same source.
Experiment [13] has as its target Botulinum neurotoxin type F (Clostridium botulinum, UniProt P30996). Kind of experiment: High-throughput multiplex microsphere dose response for inhibitors of toxin protease, specifically Botulinum neurotoxin light chain F protease, compounds from Cherry Pick 02. It counts as functional. As to conditions: read-out: EC50_MICROM.

T1 sequence (Q932Y6 whole entry): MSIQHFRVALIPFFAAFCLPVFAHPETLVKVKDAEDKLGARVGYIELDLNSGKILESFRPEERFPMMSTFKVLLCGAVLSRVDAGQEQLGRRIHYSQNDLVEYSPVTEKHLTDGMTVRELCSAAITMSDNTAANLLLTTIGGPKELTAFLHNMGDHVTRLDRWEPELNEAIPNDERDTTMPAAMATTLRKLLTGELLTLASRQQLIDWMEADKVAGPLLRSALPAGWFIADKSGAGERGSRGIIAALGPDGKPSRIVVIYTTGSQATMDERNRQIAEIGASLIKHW
Chain of Botulinum neurotoxin type F (P30996 1-436 limits assumed): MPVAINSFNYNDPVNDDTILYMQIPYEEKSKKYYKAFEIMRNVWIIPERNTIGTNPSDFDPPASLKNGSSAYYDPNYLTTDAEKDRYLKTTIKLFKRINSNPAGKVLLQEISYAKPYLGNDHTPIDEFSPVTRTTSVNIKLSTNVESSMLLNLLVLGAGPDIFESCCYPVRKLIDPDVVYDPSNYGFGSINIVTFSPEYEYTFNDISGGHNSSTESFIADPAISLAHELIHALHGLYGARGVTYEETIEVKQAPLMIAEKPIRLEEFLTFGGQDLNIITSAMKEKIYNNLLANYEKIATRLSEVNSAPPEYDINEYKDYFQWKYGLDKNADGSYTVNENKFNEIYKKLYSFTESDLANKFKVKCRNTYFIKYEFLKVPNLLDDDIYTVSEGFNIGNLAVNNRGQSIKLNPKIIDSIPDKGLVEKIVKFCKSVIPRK
Chain of Histone-lysine N-methyltransferase NSD2 (O96028 whole entry): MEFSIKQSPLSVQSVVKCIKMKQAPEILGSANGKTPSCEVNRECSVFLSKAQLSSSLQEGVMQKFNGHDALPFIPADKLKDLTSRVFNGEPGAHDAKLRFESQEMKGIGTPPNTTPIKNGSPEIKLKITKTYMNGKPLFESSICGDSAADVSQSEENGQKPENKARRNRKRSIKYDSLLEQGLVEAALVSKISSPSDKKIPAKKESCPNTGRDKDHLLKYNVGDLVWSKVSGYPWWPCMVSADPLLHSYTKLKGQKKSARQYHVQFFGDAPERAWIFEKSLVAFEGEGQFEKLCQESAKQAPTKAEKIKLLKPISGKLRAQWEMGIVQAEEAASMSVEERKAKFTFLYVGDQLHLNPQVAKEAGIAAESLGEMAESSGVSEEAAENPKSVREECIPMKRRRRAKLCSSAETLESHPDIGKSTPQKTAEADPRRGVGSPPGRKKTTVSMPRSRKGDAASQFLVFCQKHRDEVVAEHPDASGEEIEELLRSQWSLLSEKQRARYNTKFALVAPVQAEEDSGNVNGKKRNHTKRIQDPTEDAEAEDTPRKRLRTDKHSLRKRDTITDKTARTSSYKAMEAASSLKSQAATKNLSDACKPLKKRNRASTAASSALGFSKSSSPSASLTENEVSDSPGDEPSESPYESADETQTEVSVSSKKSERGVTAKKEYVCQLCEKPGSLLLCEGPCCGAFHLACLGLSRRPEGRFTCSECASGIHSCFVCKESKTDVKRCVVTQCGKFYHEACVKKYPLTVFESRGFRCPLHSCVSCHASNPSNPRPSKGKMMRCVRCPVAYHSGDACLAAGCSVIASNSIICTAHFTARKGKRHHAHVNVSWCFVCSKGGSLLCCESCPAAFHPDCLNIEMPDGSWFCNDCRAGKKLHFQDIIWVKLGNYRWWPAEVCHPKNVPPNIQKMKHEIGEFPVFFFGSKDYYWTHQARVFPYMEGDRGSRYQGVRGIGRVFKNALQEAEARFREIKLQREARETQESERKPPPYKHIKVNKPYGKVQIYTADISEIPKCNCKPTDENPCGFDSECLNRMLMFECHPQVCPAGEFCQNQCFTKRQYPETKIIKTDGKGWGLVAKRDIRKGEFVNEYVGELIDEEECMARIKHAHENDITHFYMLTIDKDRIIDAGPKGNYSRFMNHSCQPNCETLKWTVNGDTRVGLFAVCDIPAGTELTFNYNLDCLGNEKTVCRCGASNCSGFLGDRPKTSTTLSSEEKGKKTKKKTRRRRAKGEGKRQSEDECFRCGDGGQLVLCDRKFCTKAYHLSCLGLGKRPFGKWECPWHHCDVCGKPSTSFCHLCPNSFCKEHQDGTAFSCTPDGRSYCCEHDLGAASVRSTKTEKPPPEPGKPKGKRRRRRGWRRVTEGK

Regarding `CNC[C@H]1Oc2c(NC(=O)c3ccccc3)cccc2C(=O)N(C(C)C)C[C@@H]1C`, the IC50 in experiment [1] was > 20 µM (inactive).
For `COc1cc(/C=C2\C(=N)N3N=C(S(C)(=O)=O)SC3=NC2=O)ccc1OC(=O)c1cccs1`, the AC50 in [2] was > 20 µM (inactive).
For `O=C(C1=C(O)C(=O)N(Cc2cccnc2)C1c1ccccn1)c1cccs1` (stereo not drawn), the IC50 on Beta Lactamase [3] was 4.83 µM (active); on Beta Lactamase [4], 13.2 µM (inactive); at Beta-lactamase [5], > 59.6 µM (inactive); on Beta-lactamase [6], > 59.6 µM (inactive); on Beta-lactamase [7], > 59.6 µM (inactive).
With `Cc1ccc(Nc2nnc(-c3ccccc3N)o2)cc1C`, the results for the EC50 in the experiment “cells [8]” and in the experiment “cells [12]” were > 350 µM (not active) and 7.3 µM (active), respectively. In [9], the IC50 was 1.45 µM (active). Further, the AC50 in the experiment with A-375 [10] and with A-375 [11] was > 35 µM (active) in each case.
As to `COc1cccc(C(=O)OCC(=O)c2c[nH]c3ccccc23)c1O`, in [13], the EC50 was > 20 µM (inactive).

As a reminder, the IC50 is the concentration that inhibits the measured activity by half. Usually AC50 stands for the midpoint of the concentration-response curve, whichever way the signal moves.

The values above are taken from ChEMBL document CHEMBL1201862, “PubChem BioAssay data set” (2004).
